Experimental data from US20050107432A1, “Sigma receptor binder containing indanone derivative” (priority 2002, published 2005).
Counter-ions that a name gives are not always drawn.

Biological target: Sigma receptor
Experiment: Sigma receptor binding assay (3H-DTG, guinea pig brain crude membrane fraction)
Settings: for IC50: inhibition of 3H-DTG binding to guinea pig brain crude membrane fraction, 25° C., 1 hour; for sigma receptor binding action: result in words, no value given
Experimental: Sigma Receptor Binding Assay
(1) Preparation of Receptor
Ten male guinea pigs (Crj, Hartley, from Charles River Japan, Inc.) (body weight: 234 g to 260 g) were decapitated, exsanguinated and died. The brain was immediately removed, homogenized with ten volumes of 50 mM Tris-HCl (pH 7.4) using a Teflon homogenizer and was centrifuged at a rate of 50000× g at 4° C. for 20 minutes. The washing procedure was repeated once more under the same conditions, and the resulting crude membrane fraction was subjected to the assay.
The filter paper was transferred to a vial for radioactivity measurement, mixed with 5 mL of a liquid scintillation cocktail (Atomlight, from PACKARD), and the radioactivity on the filter was determined by a liquid scintillation counter (Model 1500, from PACKARD) for 2 minutes. The specific binding and the non-specific binding in the absence of the test compound were determined in the same way as above except for using 50% DMSO solution instead of the test compound and using a 100 μM Haloperidol solution instead of the test compound, respectively.
(3) Determination of Inhibition
The inhibitions of the test compound at individual concentrations were determined from the ratio of the specific binding in the presence of the test compound to the specific binding in the absence thereof. The dose-response curve was regressed according to a logit-log model in which the ratio of the specific binding in the presence of the test compound to the specific binding in the absence thereof was subjected to logit transformation and plotted against the common logarithm value of each concentration.

Compound	IC50 [nM]	sigma receptor binding action
CCOc1cc2c(cc1OCC)C(=O)C(F)(CC1CCN(Cc3ccccc3Cl)CC1)C2 (stereo not shown) [Example 43, 1-(2-chlorobenzyl)-4-[(5,6-diethoxy-2-fluoro-1-indanon)-2-yl]methylpiperidine hydrochloride]	1.5	–
COc1cc2c(cc1OC)C(=O)C(=CC1CCN(Cc3ccccc3)CC1)C2.Cl [Example 25, 1-Benzyl-4-[(5,6-dimethoxy-1-indanon)-2-ylidene]methylpiperidine hydrochloride]	–	found to have a sigma receptor binding action
O=C1c2ccc(C3CCCCC3)cc2CC1CC1CCN(Cc2ccccc2)CC1 (stereo not shown) [Example 22, hydrochloride]	1.3	–
COc1cc2c(cc1OC)C(=O)C(F)(CC1CCN(Cc3ccccc3)CC1)C2.Cl (stereo not shown) [Example 56, 1-Benzyl-4-[(5,6-dimethoxy-2-fluoro-1-indanon)-2-yl]methylpiperidine hydrochloride]	–	found to have a sigma receptor binding action
Cl.O=C1c2ccccc2CC1(F)CC1CCN(Cc2ccccc2)CC1 (stereo not shown) [Example 54, 1-Benzyl-4-[(2-fluoro-1-indanon)-2-yl]methylpiperidine hydrochloride]	–	found to have a sigma receptor binding action
COc1cc2c(cc1OC)C(=O)C(Br)(CC1CCN(Cc3ccccc3)CC1)C2.Cl (stereo not shown) [Example 70, 1-Benzyl-4-[(5,6-dimethoxy-2-bromo-1-indanon)-2-yl]methylpiperidine hydrochloride]	–	found to have a sigma receptor binding action
COc1cc2c(cc1OC)C(=O)C(CC1CCN(Cc3cccc(C)c3)CC1)C2.Cl (stereo not shown) [Example 35, 1-(3-Methylbenzyl)-4-[(5,6-dimethoxy-1-indanon)-2-yl]methylpiperidine hydrochloride]	–	found to have a sigma receptor binding action
COc1cc2c(cc1OC)C(=O)C(F)(CCCC1CCN(Cc3ccccc3)CC1)C2.Cl (stereo not shown) [Example 61, 1-Benzyl-4-[3-[(5,6-dimethoxy-2-fluoro-1-indanon)-2-yl]propyl]piperidinepiperidine hydrochloride]	–	found to have a sigma receptor binding action
COc1cc2c(cc1OC)C(=O)C(F)(C1CCN(Cc3ccccc3)CC1)C2.Cl (stereo not shown) [Example 59, 1-Benzyl-4-[(5,6-dimethoxy-2-fluoro-1-indanon)-2-yl]piperidine]	–	found to have a sigma receptor binding action
COc1cc2c(cc1OC)C(=O)C(F)(CC1CCN(CC3CCCCC3)CC1)C2.Cl (stereo not shown) [Example 66, 1-Cyclohexylmethyl-4-[(5,6-dimethoxy-2-fluoro-1-indanon)-2-yl]methylpiperidine hydrochloride]	–	found to have a sigma receptor binding action
COc1ccc2c(c1)CC(CC1CCN(Cc3ccccc3)CC1)C2=O.Cl (stereo not shown) [Example 28, 1-Benzyl-4-[(5-methoxy-1-indanon)-2-yl]methylpiperidine hydrochloride]	2.3	found to have a sigma receptor binding action
COc1cc2c(cc1OC)C(=O)C(CC1CCN(CC3CCCCC3)CC1)C2.Cl (stereo not shown) [Example 36, 1-Cyclohexylmethyl-4-[(5,6-dimethoxy-1-indanon)-2-yl]methylpiperidine hydrochloride]	–	found to have a sigma receptor binding action
